Where no end group is shown, it is not given here.
Test system: ZO-1
Test: Immunofluorescence of colon tight junction protein ZO-1
Assay type: in vivo, mouse
Conditions: week 5; vs PBS control mice
Protocol: Immunofluorescence Imaging and Analysis. Immunofluorescence was conducted on sections from proximal colon samples frozen in OCT and sectioned. Slides were first thawed and outlined with a hydrophobic pen (ImmEdge Hydrophobic Barrier PAP Pen, Vector Labs, H-4000) then fixed with 4% paraformaldehyde for 10 min at room temperature. The slides were washed three times with wash buffer (1×PBS+100 mM CaCl2+100 mM MgCl) for 10 min at room temperature then incubated in a blocking solution containing 0.3% Triton X-100 and 10% normal donkey serum in 1×PBS+100 mM CaCl2+100 mM MgCl for 1 h at room temperature. The slides were then incubated in the primary antibodies (rat anti-ZO-1, clone R40.70, Fisher Scientific, MABT11; rabbit anti-occludin, clone EPR20992, Abcam, ab216327) diluted 1:100 in the blocking solution overnight at 4° C. The slides were washed three times with wash buffer for 10 min at room temperature. They were then incubated in the secondary antibodies (donkey anti-rat Alexa Fluor™ 568, Thermo Fisher, A78946; donkey anti-rabbit Alexa Fluor™ 647, Thermo Fisher, A31573) and nuclear marker DAPI diluted 1:500 in the blocking solution for 2 h at room temperature. […] The intensities of each marker were quantified using ImageJ and expressed as the integrated density of the fluorescent signal normalized to the area fraction of DAPI positive pixels. […]

Substance: (C11H22NO6P)n-CCCCSGSG-QQKFQFQFEQQ-NH2 (CCCCSGSGQQKFQFQFEQQ-NH2; not fully specified; cysteine pairing not given here; also: phosphorylcholine groups (C11H22NO6P) n=1-4, attachment not placed) [PCM-Q11, linear multi-PC conjugate]
- ZO-1 levels in colon after immunization: not significantly different

— US20250281629A1, “COMPOSITIONS AND METHODS FOR ANTI-PHOSPHOCHOLINE ACTIVE IMMUNOTHERAPY” (Duke University, priority 2022, published 2025)
